Measurements taken from patent US20150283240A1, “STABILIZED COMPOSITIONS COMPRISING A […] ACTIVE AGENT AND AN OXIDIZING PRESERVATIVE” (Allergan, Inc., priority 2014, published 2015).

What was measured:
[1] = for Stabilization of chlorine dioxide (in words): excipients of Table 1 in brimonidine composition; for Stabilized Chlorine Dioxide Concentration, 0 Days / Stabilized Chlorine Dioxide Concentration, 7 Days / Stabilized Chlorine Dioxide Concentration, 14 Days: ingredient added at stated ppm to proprietary brimonidine composition
[2] = Effect of citrate on bimatoprost and Purite stability in the composition of Table 4 at 50° C.; type: physicochemical; details: compositions D (citric acid 0.014%) vs E, 50° C., 3, 6 and 10 weeks, FIGS. 1 and 2
Procedure: Compositions D and E were prepared according to Table 4 by a procedure similar to that described in Example 2. […] The samples were stored at 50° C. and the concentrations of bimatoprost (FIG. 1) and Purite® (FIG. 2) were determined at 3, 6 and 10 weeks.

[3] = type: physicochemical
Procedure: A composition, prepared according to Table 5, was entirely manufactured in a single batch vessel and was prepared as follows. The ingredients are added into purified water with mixing in the following order: sodium phosphate dibasic heptahydrate, citric acid monohydrate, sodium chloride, bimatoprost, and Purite®. Each ingredient was allowed to dissolve completely before the next ingredient was added. The pH was then measured and adjusted to 7.3, and purified water was added to bring the composition to final volume.

Effect of citrate on bimatoprost and Purite stability (in words) [2] | Storage stability for bimatoprost and Purite (in words) [3] | SMILES | Stabilization of chlorine dioxide (in words) [1] | Stabilized Chlorine Dioxide Concentration, 0 Days [1] [ppm] | Stabilized Chlorine Dioxide Concentration, 7 Days [1] [ppm] | Stabilized Chlorine Dioxide Concentration, 14 Days [1] [ppm]
– | – | O=C(O)CN(CCN(CC(=O)O)CC(=O)O)CC(=O)O [EDTA] | do not stabilize | 44 | 2 | 0
– | – | NCCN [Ethylene diamine] | do not stabilize | – | – | –
– | – | O=C([O-])/C(O)=C(\O)C(=O)[O-].[Na+].[Na+] [Sodium Dihydroxyfurmarate] | – | 37 | 13 | 0
– | – | O=C[O-].[Na+] [Sodium Formate] | – | 42 | 40 | 36
– | – | CC(O)C(=O)[O-].[Na+] (stereo not drawn) [Sodium Lactate] | – | 45 | 40 | 37
– | – | O=C([O-])C(=O)[O-].[Na+].[Na+] [Sodium Oxalate] | ineffective | 39 | 38 | 35
– | – | CC(=O)C(=O)[O-].[Na+] [Sodium Pyruvate] | ineffective | – | – | –
stabilizes both bimatoprost and Purite® | excellent storage stability | O=C(O)CC(O)(CC(=O)O)C(=O)O [citrate, citric acid] | – | – | – | –
